Reference: PubChem BioAssay (NCI)
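How tested: cells in 96-well plates exposed to compound for 48 hours at five concentrations. GI50 = concentration required for 50% inhibition of growth. TGI denotes the concentration required for complete inhibition of growth.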

Experiments:
Assay in all cases: inhibition of tumour cell growth, NCI panel, 48 h
786-0 renal = tested on: 786-0 renal
A498 renal = tested on: A498 renal
A549 NSCLC = tested on: A549 NSCLC
ACHN renal = tested on: ACHN renal
BT-549 breast = tested on: BT-549 breast
CAKI-1 renal = tested on: CAKI-1 renal
CCRF-CEM leukemia = tested on: CCRF-CEM leukemia
COLO 205 colon = tested on: COLO 205 colon
DU-145 prostate = tested on: DU-145 prostate
EKVX NSCLC = tested on: EKVX NSCLC
HCC-2998 colon = tested on: HCC-2998 colon
HCT-116 colon = tested on: HCT-116 colon
HCT-15 colon = tested on: HCT-15 colon
HOP-62 NSCLC = tested on: HOP-62 NSCLC
HOP-92 NSCLC = tested on: HOP-92 NSCLC
HS 578T breast = tested on: HS 578T breast
HT29 colon = tested on: HT29 colon
IGROV1 ovarian = tested on: IGROV1 ovarian
K-562 leukemia = tested on: K-562 leukemia
KM12 colon = tested on: KM12 colon
LOX IMVI melanoma = tested on: LOX IMVI melanoma
M14 melanoma = tested on: M14 melanoma
MCF7 breast = tested on: MCF7 breast
MDA-MB-231 breast = tested on: MDA-MB-231 breast
MDA-MB-435 = tested on: MDA-MB-435
MOLT-4 leukemia = tested on: MOLT-4 leukemia
NCI-H226 lung = tested on: NCI-H226 lung
NCI-H23 lung = tested on: NCI-H23 lung
NCI-H460 lung = tested on: NCI-H460 lung
NCI-H522 lung = tested on: NCI-H522 lung
NCI/ADR-RES ovarian = tested on: NCI/ADR-RES ovarian
OVCAR-3 ovarian = tested on: OVCAR-3 ovarian
OVCAR-4 ovarian = tested on: OVCAR-4 ovarian
OVCAR-5 ovarian = tested on: OVCAR-5 ovarian
OVCAR-8 ovarian = tested on: OVCAR-8 ovarian
PC-3 prostate = tested on: PC-3 prostate
RPMI-8226 leukemia = tested on: RPMI-8226 leukemia
RXF 393 renal = tested on: RXF 393 renal
SF-268 CNS = tested on: SF-268 CNS
SF-295 CNS = tested on: SF-295 CNS
SF-539 CNS = tested on: SF-539 CNS
SK-MEL-2 melanoma = tested on: SK-MEL-2 melanoma
SK-MEL-28 melanoma = tested on: SK-MEL-28 melanoma
SK-MEL-5 melanoma = tested on: SK-MEL-5 melanoma
SK-OV-3 ovarian = tested on: SK-OV-3 ovarian
SN12C renal = tested on: SN12C renal
SNB-19 CNS = tested on: SNB-19 CNS
SNB-75 CNS = tested on: SNB-75 CNS
SW-620 colon = tested on: SW-620 colon
T-47D breast = tested on: T-47D breast
TK-10 renal = tested on: TK-10 renal
U251 CNS = tested on: U251 CNS
UACC-257 melanoma = tested on: UACC-257 melanoma
UACC-62 melanoma = tested on: UACC-62 melanoma
UO-31 renal = tested on: UO-31 renal

## CC(=O)O[C@H]1[C@@H]2OC(=O)C3(CC3)C2C[C@H]2O[C@]2(C)CC/C=C(\C)CCC[C@@H]1C (stereo not given in full)
786-0 renal
  GI50: 25.8 µM
  TGI: 92 µM
A498 renal
  GI50: 27.4 µM
  TGI: > 100 µM
A549 NSCLC
  GI50: 20.3 µM
  TGI: 46 µM
ACHN renal
  GI50: 21 µM
  TGI: 44.2 µM
BT-549 breast
  GI50: 18.7 µM
  TGI: 46.2 µM
CAKI-1 renal
  GI50: 19.8 µM
  TGI: 42.1 µM
CCRF-CEM leukemia
  GI50: 17.2 µM
  TGI: 37.8 µM
COLO 205 colon
  GI50: 34 µM
  TGI: > 100 µM
DU-145 prostate
  GI50: 19.6 µM
  TGI: 39.1 µM
EKVX NSCLC
  GI50: 30.1 µM
  TGI: > 100 µM
HCC-2998 colon
  GI50: 19.8 µM
  TGI: 50.9 µM
HCT-116 colon
  GI50: 15.7 µM
  TGI: 37.3 µM
HCT-15 colon
  GI50: 26.8 µM
  TGI: 70 µM
HOP-62 NSCLC
  GI50: 37.7 µM
  TGI: > 100 µM
HOP-92 NSCLC
  GI50: 4.58 µM
  TGI: 63 µM
HS 578T breast
  GI50: 19 µM
  TGI: 50.2 µM
HT29 colon
  GI50: 36.8 µM
  TGI: > 100 µM
IGROV1 ovarian
  GI50: 16.4 µM
  TGI: 45.2 µM
K-562 leukemia
  GI50: 14.3 µM
  TGI: 37.7 µM
KM12 colon
  GI50: 18.4 µM
  TGI: 36.5 µM
LOX IMVI melanoma
  GI50: 15.8 µM
  TGI: 46.2 µM
M14 melanoma
  GI50: 19.1 µM
  TGI: 43.6 µM
MCF7 breast
  GI50: 37.1 µM
  TGI: > 100 µM
MDA-MB-231 breast
  GI50: 20.5 µM
  TGI: 48.7 µM
MDA-MB-435
  GI50: 24.2 µM
  TGI: 54.3 µM
MOLT-4 leukemia
  GI50: 18.1 µM
  TGI: 41.3 µM
NCI-H226 lung
  GI50: 24.1 µM
  TGI: 66.5 µM
NCI-H23 lung
  GI50: 22.1 µM
  TGI: > 100 µM
NCI-H460 lung
  GI50: 24.6 µM
  TGI: 58.2 µM
NCI-H522 lung
  GI50: 21.1 µM
  TGI: 48.4 µM
NCI/ADR-RES ovarian
  GI50: 23.3 µM
  TGI: 67.5 µM
OVCAR-3 ovarian
  GI50: 17.5 µM
  TGI: 32.9 µM
OVCAR-4 ovarian
  GI50: 38 µM
  TGI: > 100 µM
OVCAR-5 ovarian
  GI50: 76.5 µM
  TGI: > 100 µM
OVCAR-8 ovarian
  GI50: 27.8 µM
  TGI: > 100 µM
PC-3 prostate
  GI50: 19 µM
  TGI: 49.6 µM
RPMI-8226 leukemia
  GI50: 23.8 µM
  TGI: 55.2 µM
RXF 393 renal
  GI50: 14.8 µM
  TGI: 37.7 µM
SF-268 CNS
  GI50: 27.7 µM
  TGI: > 100 µM
SF-295 CNS
  GI50: 40.2 µM
  TGI: > 100 µM
SF-539 CNS
  GI50: 23.3 µM
  TGI: 50.8 µM
SK-MEL-2 melanoma
  GI50: 19.5 µM
  TGI: 49.5 µM
SK-MEL-28 melanoma
  GI50: 36.7 µM
  TGI: > 100 µM
SK-MEL-5 melanoma
  GI50: 14.8 µM
  TGI: 29 µM
SK-OV-3 ovarian
  GI50: 80.5 µM
  TGI: > 100 µM
SN12C renal
  GI50: 22.7 µM
  TGI: 49.7 µM
SNB-19 CNS
  GI50: 62.4 µM
  TGI: > 100 µM
SNB-75 CNS
  GI50: 38.1 µM
  TGI: > 100 µM
SW-620 colon
  GI50: 23.7 µM
  TGI: 55.9 µM
T-47D breast
  GI50: 43.7 µM
  TGI: > 100 µM
TK-10 renal
  GI50: 23.9 µM
  TGI: 46.9 µM
U251 CNS
  GI50: 22.6 µM
  TGI: 49.9 µM
UACC-257 melanoma
  GI50: 43.4 µM
  TGI: > 100 µM
UACC-62 melanoma
  GI50: 17.1 µM
  TGI: 46.1 µM
UO-31 renal
  GI50: 25.5 µM
  TGI: 64.2 µM
